Test results: patent publication US8524682B2, “Compositions and methods for inhibiting EZH2” (The Regents of the University of Michigan, priority 2007, dated 2013)

What was measured:
Assay type in all cases: cell-based
EZH2 [1] = target: T1, EZH2 (Homo sapiens, UniProt Q15910); experiment: E-cadherin promoter-luciferase reporter high throughput screen in EZH2 adenovirus infected cells; conditions: final compound concentration about 5 μM, 24 hours
T1 construct: expressed in transfected cells
Method: A high throughput screening protocol was used to identify small molecule inhibitors of EZH2. Primary breast cancer cells were transfected with the E-cadherin promoter luciferase reporter gene and infected with the EZH2 adenovirus to suppress luciferase expression 48 hours prior to compound addition. Eighteen hours prior to compound addition, cells were trypsinized and distributed into 384-well plates in 60 μl of medium using the Multidrop equipment. At time zero, compounds were transferred from 1.5 mM DMSO stocks to the cell plates in a final compound concentration of about 5 μM. […] After 24 hours, the expressed luciferase activity was measured by adding 50 μl of the medium and 10 μl of Steady-Glo luciferase reagent (Promega). Sample plates were read in the Pherastar plate reader (BMG Labtech). Each plate in the screen contains 320 compounds to be tested plus 64 control wells placed in the outer two columns on each side of the plate (>50,000 compounds are screened). […] More than 4000 small molecules were screened, which included synthetic chemicals as well as natural products that are available in the Center for Chemical Genomics (CCG) library at the University of Michigan.

EZH2 [2] = target: T1, EZH2; experiment: Quantitative SYBR green RT-PCR of E cadherin transcripts in EZH2 overexpressing cells
Method: A, Chemical structure of the flavonoid isoliquiritigenin. B, Quantitative SYBR green RT-PCR of EZH2 and E cadherin transcripts in cell lines over expressing EZH2 and control adenoviruses. RT-PCR on each sample was performed in duplicate, and a ratio was calculated relative to the housekeeping genes GAPDH. Transcripts were also measured in cells that were treated with isoliquiritigenin or other small molecules.
(§1) A, Dose response of isoliquiritigenin on inhibiting EZH2 mediated repression. B, A reconstituted basement membrane invasion chamber assay was used to assess the invasion of breast epithelial cell line infected with EZH2 and control adenoviruses as well as SET domain mutant EZH2 adenovirus. EZH2 treated cells were also treated with SAHA, the HDAC inhibitor and isoliquiritigenin, the small molecule inhibitor of EZH2 and the control small molecule phloretin.

[3] = system: HME cells overexpressing EZH2; experiment: Basement membrane invasion chamber assay, breast cell line HME overexpressing EZH2
Method: as §1

T1 sequence (Q15910 whole entry): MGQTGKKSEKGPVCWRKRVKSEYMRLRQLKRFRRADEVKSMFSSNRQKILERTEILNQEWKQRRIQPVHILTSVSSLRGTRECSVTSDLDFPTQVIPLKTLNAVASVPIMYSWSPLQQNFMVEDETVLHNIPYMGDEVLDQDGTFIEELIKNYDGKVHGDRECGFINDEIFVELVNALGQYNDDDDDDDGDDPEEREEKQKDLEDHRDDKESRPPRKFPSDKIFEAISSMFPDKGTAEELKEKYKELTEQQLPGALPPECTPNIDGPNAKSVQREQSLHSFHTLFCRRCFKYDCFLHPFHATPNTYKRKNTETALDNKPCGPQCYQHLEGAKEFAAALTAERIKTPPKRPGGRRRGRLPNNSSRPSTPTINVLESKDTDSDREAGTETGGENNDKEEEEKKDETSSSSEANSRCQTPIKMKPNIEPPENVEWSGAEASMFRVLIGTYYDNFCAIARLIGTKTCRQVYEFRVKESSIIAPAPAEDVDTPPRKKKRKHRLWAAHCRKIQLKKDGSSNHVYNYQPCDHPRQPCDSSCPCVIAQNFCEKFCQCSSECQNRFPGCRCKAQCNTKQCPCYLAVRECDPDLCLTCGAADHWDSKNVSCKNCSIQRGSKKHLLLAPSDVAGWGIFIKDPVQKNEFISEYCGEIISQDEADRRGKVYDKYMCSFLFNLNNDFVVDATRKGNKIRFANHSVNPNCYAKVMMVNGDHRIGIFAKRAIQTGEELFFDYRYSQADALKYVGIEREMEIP

## O=C(/C=C/c1ccc(O)cc1)c1ccc(O)cc1O [isoliquiritigenin]
EZH2 [1]
  EZH2 inhibitory activity: potent small molecule inhibitor of EZH2 activity
EZH2 [2]; RT-PCR, cells over expressing EZH2
  inhibition of EZH2 mediated E cadherin repression: significantly inhibit
EZH2 [2]; dose response
  concentration that optimally inhibits the EZH2 mediated E cadherin repression: 16 µM
[3]
  inhibition of invasion mediated by EZH2 overexpression: inhibited this invasion
